Experimental findings from PubChem BioAssay (NCI) are described below.

Test systems include HCC-2998 colon; NCI-H23 lung; MOLT-4 leukemia; SN12C renal; SNB-75 CNS; HOP-92 NSCLC; LOX IMVI melanoma; M19-MEL melanoma; HCT-116 colon; OVCAR-3 ovarian; A498 renal; OVCAR-4 ovarian; NCI-H226 lung.
Common to all, as to experiment: DTP human tumour cell line panel, 48 h

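Compound exposure: 48 hours, 5 concentrations, 96-well plates. Here, GI50 denotes the concentration required for 50% inhibition of growth. The concentration for full growth arrest is given as TGI.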

As usually defined, the GI50 is the concentration that inhibits growth by half. What is called TGI is the concentration at which net growth stops. In the case of `c1ccc(C2=NN[C@H](c3cn(-c4ccccc4)nc3-c3ccccc3)C2)cc1`, the GI50 in the test on HCC-2998 colon is above 100 µM; with NCI-H23 lung, 7.21 µM; with MOLT-4 leukemia, above 100 µM; with SN12C renal it was 4.18 µM; in the test with SNB-75 CNS, 2.05 µM; with HOP-92 NSCLC, 2.72 µM. Also, the GI50 in the test with LOX IMVI melanoma was 3.33 µM. The TGI in the test on HCC-2998 colon was above 100 µM; in the test on NCI-H23 lung, above 100 µM; with MOLT-4 leukemia, above 100 µM; in the test on SN12C renal, above 100 µM; in the test with SNB-75 CNS, 4.19 µM; in the test with HOP-92 NSCLC, 8.07 µM. For the same molecule, the TGI in the test with LOX IMVI melanoma is above 100 µM.

Take `C=CCCCCn1c2ccccc2c2c(C)c3c[n+](C)ccc3c(C)c21`: the TGI in the test with MOLT-4 leukemia was 1.28 µM; with M19-MEL melanoma, 1.41 µM; in the test with HCT-116 colon it was 1.25 µM; with OVCAR-3 ovarian, 1.52 µM; with A498 renal, 4.42 µM; in the test on OVCAR-4 ovarian, 1.27 µM. The TGI in the test on HOP-92 NSCLC worked out at 0.783 µM.

Turning to `Cc1cc(=O)[nH]c(NN2C(Cl)C(=O)C2c2c(O)ccc3ccccc23)n1` (stereo unspecified), the TGI in the test on HCC-2998 colon is 32.6 µM; with NCI-H226 lung, 45.6 µM; with NCI-H23 lung, 39.7 µM; in the test on MOLT-4 leukemia, 64.1 µM; in the test on M19-MEL melanoma, above 100 µM; in the test with HCT-116 colon, 48.8 µM. For the same molecule, the TGI with OVCAR-3 ovarian is 64.9 µM; in the test with SN12C renal it was 69.5 µM; in the test with OVCAR-4 ovarian, 51.7 µM; with SNB-75 CNS, 39.2 µM; in the test on HOP-92 NSCLC it was 34.5 µM; with LOX IMVI melanoma, 32.7 µM.

In the case of `Clc1ccc2c(Cl)nc(-c3ccccc3)nc2c1`, the TGI with HCC-2998 colon is above 100 µM; in the test with NCI-H226 lung, 55.9 µM; with NCI-H23 lung, 35.9 µM; in the test on MOLT-4 leukemia, 84.5 µM; with M19-MEL melanoma it was above 100 µM; in the test on HCT-116 colon it was above 100 µM. Moreover, the TGI is 50.1 µM in the test on OVCAR-3 ovarian, above 100 µM with SN12C renal, above 100 µM in the test on A498 renal and above 100 µM with SNB-75 CNS.

As to `CCCCCCCSCC1OC(n2cnc3c(N)ncnc32)C(O)C1O` (stereo unspecified), the TGI was 66.9 µM in the test with HCC-2998 colon; above 100 µM in the test on NCI-H226 lung; above 100 µM with NCI-H23 lung; 62.4 µM in the test on MOLT-4 leukemia; 11.4 µM with HCT-116 colon; 65.4 µM in the test with SN12C renal. For the same molecule, the TGI with A498 renal was 32.4 µM; in the test on OVCAR-4 ovarian, 93 µM; with SNB-75 CNS, above 100 µM; with HOP-92 NSCLC, 58 µM; in the test with LOX IMVI melanoma it was above 100 µM.

`Oc1c2c(c3c4c1N=CC=4CCN=3)C1(C=C(Br)C(O)C(Br)=C1)CCN2` (stereo unspecified): the TGI with HCC-2998 colon stood at 4.61 µM; in the test on NCI-H226 lung, 9 µM; in the test with NCI-H23 lung it was 2.64 µM; in the test with M19-MEL melanoma it was 1.05 µM; with HCT-116 colon, 1.9 µM; in the test with OVCAR-3 ovarian it was 3.12 µM. Also, the TGI in the test with SN12C renal was determined as 3.44 µM; with A498 renal it was 23.4 µM; in the test on OVCAR-4 ovarian, 2.86 µM; in the test on SNB-75 CNS, 24.5 µM; in the test with HOP-92 NSCLC, 8.08 µM; with LOX IMVI melanoma, 3.09 µM.
